# From publication PMC6599250, “Functional diversity of inhibitors tackling the differentiation blockage of MLL-rearranged leukemia” (Journal of Hematology & Oncology, 2019)
# Columns and labels:
# MENIN-MLL interaction = MENIN-MLL interaction (Homo sapiens, UniProt O00255); experiment: On target potency, MENIN-MLL interaction; format: biochemical
# Source text: Table 1 Inhibitors used in this study. Chemical structures of inhibitor used in this study tackling Menin-MLL1 interaction, BRD4/2/3, DOT1L, CDK9, and DHODH active sites, with respective biochemical IC50, rationale and current developmental status | column: BAY-155
# DHODH = tested on: DHODH; set-up: method as in PMID 2743343; conditions: read-out: On target Potency IC50; cited from earlier work
# [1] = tested on: MLL-fused cell lines (MV4-11, MOLM-13); experiment: Cell proliferation, MLL-fused cell lines; format: cell-based; conditions: 4 days of treatment (Fig. 1a), DMSO = 100%
# Method: Cells were seeded in the optimal growth medium at 4000–5000 cells/well in a 96 MTP and cultured 18–24 h before inhibitor treatment. Upon treatment with the indicated inhibitor, cells were cultured for 24 h, 96 h, and 168 h and effects on proliferation were determined using alamarBlue Cell Viability Reagent (Thermo Fisher Scientific, Waltham, MA, USA).
# [2] = tested on: H3K79me2 on HOXA9 and MEIS1; conditions: clinical phase I study; cited from earlier work
# AML patients = conditions: cited from earlier work
# BRD4/2/3 = conditions: read-out: On target Potency EC50; cited from earlier work
# Chain of MENIN-MLL interaction (O00255 whole entry): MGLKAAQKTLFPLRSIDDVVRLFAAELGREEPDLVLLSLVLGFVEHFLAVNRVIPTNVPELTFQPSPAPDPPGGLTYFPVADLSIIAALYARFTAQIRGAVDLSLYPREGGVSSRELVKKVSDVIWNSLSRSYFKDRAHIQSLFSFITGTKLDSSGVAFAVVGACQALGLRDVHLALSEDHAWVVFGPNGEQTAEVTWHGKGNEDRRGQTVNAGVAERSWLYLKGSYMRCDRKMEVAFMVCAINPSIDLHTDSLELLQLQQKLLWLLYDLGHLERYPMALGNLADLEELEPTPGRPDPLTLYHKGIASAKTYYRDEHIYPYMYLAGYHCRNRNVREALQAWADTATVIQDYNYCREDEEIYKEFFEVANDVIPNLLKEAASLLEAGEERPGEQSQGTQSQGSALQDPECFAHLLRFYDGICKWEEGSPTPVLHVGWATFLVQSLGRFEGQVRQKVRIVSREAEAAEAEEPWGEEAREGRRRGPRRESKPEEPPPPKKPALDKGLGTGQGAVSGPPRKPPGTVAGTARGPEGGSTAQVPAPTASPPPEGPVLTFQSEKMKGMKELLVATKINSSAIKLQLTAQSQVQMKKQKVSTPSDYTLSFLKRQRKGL
smiles,measurement,setting,value
Cc1c(CN2CCC3(CC2)CN(c2ncnc4sc(CC(F)(F)F)cc24)C3)ccc2c1cc(C#N)n2CC(N)=O [BAY-155],EC50,MENIN-MLL interaction,8 nM
CC(C)N(C[C@H]1O[C@@H](n2cnc3c(N)ncnc32)[C@H](O)[C@@H]1O)[C@H]1C[C@@H](CCc2nc3cc(C(C)(C)C)ccc3[nH]2)C1 [EPZ-5676],proliferation inhibited to,[1],40–50%
same,H3K79me2 on HOXA9 and MEIS1 in AML patients,[2],significant reduction of H3K79me2 on HOXA9 and MEIS1
Cc1sc2c(c1C)C(c1ccc(Cl)cc1)=N[C@@H](CC(=O)Nc1ccc(O)cc1)c1nnc(C)n1-2 [OTX015],clinical activity in AML patients,AML patients; AML patients harboring diverse driving mutations,partial blast clearance and recovery of platelets
same,dose-limiting effect in patients,AML patients; patients with incomplete bone marrow failure,severe thrombocytopenia as dose-limiting effect
same,EC50,BRD4/2/3,10 to 19 nM
